Measurements: PMC9698702, “Efficient Preparation of High-Purity Fucoxanthinol by SpyTag-Tailored Active Cholesterol Esterase Aggregates” (Marine Drugs, 2022)

System: T1, free cholesterol esterase
T1 construct: commercial Pseudomonas cholesterol esterase (Sigma-Aldrich), free
Assay: coupled cholesterol oxidase/peroxidase assay at […] nm, Lineweaver-Burk
Type: biochemical
Conditions: free enzyme; taurocholate, pH 7.0, 37 °C; substrate of the kinetic run not named, taken from the activity assay

## CCCCCCCC/C=C\CCCCCCCC(=O)O[C@H]1CC[C@@]2(C)C(=CC[C@H]3[C@@H]4CC[C@H]([C@H](C)CCCC(C)C)[C@@]4(C)CC[C@@H]32)C1 [cholesteryl oleate]
  Km: 48.8 µM
